Results published in paper PMC3413214, “Structural and biochemical characterization of a trapped coenzyme A adduct of Caenorhabditis elegans glucosamine-6-phosphate N-acetyltransferase 1” (Acta Crystallographica Section D: Biological Crystallography, 2012).

Experiments:
CeGNA1 [1] = target: T1, CeGNA1 (Caenorhabditis elegans, UniProt Q17427); assay: X-ray crystal structure, […] Å; MALDI-TOF mass spectrometry; type: binding; settings: covalent; disulfide to Cys141, inactive enzyme, reversed by DTT; nonreducing crystallisation, pH 8.5
T1 construct: gene gna-1; full-length, 165 residues; GST fusion from pGEX-6P-1 in E. coli BL21(DE3) pLysS, GST cut with PreScission protease; homodimer; 18 876 Da by MALDI
T1 sequence (Q17427 whole entry, the tested form may be a part): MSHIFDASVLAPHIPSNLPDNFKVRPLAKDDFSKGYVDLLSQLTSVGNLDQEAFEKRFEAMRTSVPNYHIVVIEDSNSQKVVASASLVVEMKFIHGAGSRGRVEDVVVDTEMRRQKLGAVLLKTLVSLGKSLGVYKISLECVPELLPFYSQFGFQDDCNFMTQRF

CeGNA1 [2] = target: T1, CeGNA1; assay: X-ray crystal structure, […] Å; type: binding; settings: ternary product complex with CoA; acceptor (GlcN-6P) subsite at dimer interface; crystals at pH 8.5

Row | Structure (SMILES) | X-ray crystal structure, 1.55 Å; MALDI-TOF mass spectrometry (CeGNA1 [1]) | X-ray crystal structure, 1.75 Å (CeGNA1 [2])
1 | CC(C)(COP(=O)(O)OP(=O)(O)OC[C@H]1O[C@@H](n2cnc3c(N)ncnc32)[C@H](O)[C@@H]1OP(=O)(O)O)[C@@H](O)C(=O)NCCC(=O)NCCS [CoA] | the CoA thiol has formed a covalent complex with the enzyme through a disulfide | –
2 | CC(=O)N[C@H]1C(O)O[C@H](COP(=O)(O)O)[C@@H](O)[C@@H]1O (some centres unmarked) [GlcNAc-6P] | – | occupied by the products CoA and GlcNAc-6-phosphate, both with well defined electron density
